Reference: PMC9027509, “Modulation of Paracellular-like Drug Transport across an Artificial Biomimetic Barrier by Osmotic Stress-Induced Liposome Shrinking” (Pharmaceutics, 2022)

Legend:
Format in all cases: in vitro ADME
[1] = Permeation across PermeaPad barrier, reversed Franz cell setup, after NaCl pretreatment; details: for Increase of apparent permeability across the PermeaPad® barrier upon hypo-osmotic pretreatment: hypo-osmotic pretreatment (soaking in hypotonic medium); for Papp: permeation in 300 mOsm PBS pH 6.5, 37 °C, mean ± SD, read-out: Permeability across PermeaPad®; for Increase of permeability in PBS across PermeaPad®: pretreated with NaCl solutions of 50, 150, or 900 mOsm/kg compared to 300 mOsm/kg; for Change of permeability across PermeaPad® after hyper-osmotic pretreatment (in words): pretreatment with 900 mOsm/kg NaCl solution versus 300 mOsm, p < 0.05; for Papp, mean: supplement raw data, mean of replicates A-C
Procedure: (§1) During these studies, phosphate-buffered saline (PBS) was used as the acceptor medium and for the preparation of donor media for permeation experiments. The liposomes were allowed to form within the barrier by soaking the dry sandwich barrier (PermeaPad) in hypo-, iso-, or hyper-osmotic media and compared to the PBS by using NaCl solutions of different osmolalities. PBS was prepared by dissolving 35 mM sodium phosphate dibasic dihydrate and 75 mM sodium phosphate monobasic monohydrate in water. Then, the pH was adjusted to 6.5 by adding 0.1 M HCl or 0.1 M NaOH. Finally, the osmolality was measured on a semi-micro osmometer K-7400 from KNAUER Wissenschaftliche Geräte GmbH (Berlin, Germany), and NaCl was added to obtain an osmolality of 300 mOsm. Solutions of NaCl were prepared by dissolving NaCl in purified water to obtain osmolalities of 50, 150, 250, 300, 350, 450 and 900 mOsm.
(§2) The acyclovir solution was prepared by dissolving 1 mg/mL acyclovir in PBS. […] The stock of calcein was prepared by dissolving 2.8 g calcein in 30 mL water before adjusting the pH to 6.5 with 4 M NaOH (~20 mL), and the osmolality of the stock was adjusted to 300 mOsm with NaCl. […] The saturated celecoxib suspensions were prepared by suspending 1 mg/mL of celecoxib in PBS. The suspension was then sonicated for 10 min and left in the shaking water bath at 50 rpm and 37 °C for 40 h before starting the permeation experiments.
(§3) For the permeation experiments, we used the reversed Franz cell setup from Permegear (Hellertown, PA, USA) with the donor in the bottom chamber (8 mL) and the acceptor in the top chamber (2 mL). The two compartments were either separated by PermeaPad® or a sandwich consisting of two pieces of the support sheet representing the support layer of PermeaPad® (with no lipids). The barriers were kindly donated by InnoMe GmbH (Espelkamp, Germany). A cylindrical stir bar (2 mm diameter × 8 mm length) was spinning at 500 rpm at the bottom of the donor compartment. The temperature of the Franz cells was kept constant at 37 °C by a circulating water system.
(§4) Prior to the permeation experiments, the barrier was exposed to NaCl solutions ranging from 50 to 900 mOsm for 30 min by simply adding 2 mL of the NaCl solution to the top compartment. The NaCl solutions were removed from the top compartment right before initiating the permeation experiments.
(§5) For the permeation experiments, the system was kept assembled after the NaCl pretreatment, and the bottom compartment was filled with 8 mL of donor solution/suspension, followed by the addition of 2 mL PBS to the top compartment. […] All samples were replaced by the same volume of PBS to keep the acceptor volume constant and to maintain sink conditions. Before and after experiments, donor samples were withdrawn to keep track of the mass balance (see the Supplementary Materials).
(§6) The column temperature was 40 °C during measurement. […] All quantification was with a freshly prepared calibration curve in the relevant range.
(§7) The flux was determined by plotting the cumulative amount of a drug compound permeation (dQ) normalized to the permeation area (A) (1 cm^2) against time (dt), with the flux (J) equal to the slope. (1) J=dQ/A·dt
(§8) We assumed that the change in the donor concentration over the experiments was negligible. The apparent permeability (Papp) was equal to the flux normalized to the starting donor concentration (C0). (2) Papp=J/C0

[2] = Permeability across the lipid layer of PermeaPad calculated from Papp and Psup (Equation 3); details: for Permeation across lipid layer, fold higher with 50 mOsm/kg pretreatment: 50 mOsm/kg versus 300 mOsm/kg NaCl pretreatment; for Papp: not told, calculated 1/Papp=1/Plip+1/Psup
From the text: The permeation across the lipid layer (Plip) has been calculated using Equation (3) (Di Cagno et al., 2015). The inverse of each permeability constant represents the resistance. The sum of the resistance of the lipid layer and the support layer (Psup) composing the PermeaPad® barrier gives the resistance of the whole barrier. (3) 1/Papp=1/Plip+1/Psup

[3] = Permeation across lipid-free support sheets (support layer of PermeaPad), reversed Franz cell setup; details: for Papp: 300 mOsm PBS pH 6.5, 37 °C, mean ± SD, read-out: Permeability across support layer; for Papp, mean: supplement raw data, Support sheet, 30 min pretreatment, mean of replicates A-C
Procedure: as §1, §2, §3, §4, §5, §6, §7, §8

[4] = pH 6.5, barrier pretreated 30 min with 50 mOsm/kg NaCl solution
[5] = pH 6.5, barrier pretreated 30 min with 300 mOsm/kg NaCl solution
[6] = PermeaPad, osmolality 50, 30 min pretreatment
[7] = PermeaPad, osmolality 150, 30 min pretreatment
[8] = PermeaPad, osmolality 300, 30 min pretreatment
[9] = PermeaPad, osmolality 450, 30 min pretreatment
[10] = PermeaPad, osmolality 900, 30 min pretreatment
[11] = pH 6.5, pretreatment with 50 mOsm/kg NaCl solution
[12] = pH 6.5, pretreatment with 300 mOsm/kg NaCl solution
[13] = pH 6.5, pretreated 30 min with 50 mOsm/kg NaCl solution
[14] = pH 6.5, pretreated 30 min with 300 mOsm/kg NaCl solution

| SMILES | Increase of apparent permeability across the PermeaPad® barrier upon hypo-osmotic pretreatment [1] | Papp [1, 4] [×10⁻⁶ cm/s] | Papp [1, 5] [×10⁻⁶ cm/s] | Increase of permeability in PBS across PermeaPad® [1] | Change of permeability across PermeaPad® after hyper-osmotic pretreatment (in words) [1] | Papp, mean [1, 6] | Papp, mean [1, 7] | Papp, mean [1, 8] | Papp, mean [1, 9] | Papp, mean [1, 10] | Permeation across lipid layer, fold higher with 50 mOsm/kg pretreatment [2] [fold] | Papp [2, 11] [×10⁻⁶ cm/s] | Papp [2, 12] [×10⁻⁶ cm/s] | Papp [3, 13] [×10⁻⁶ cm/s] | Papp [3, 14] [×10⁻⁶ cm/s] | Papp, mean ([3]; osmolality 50) | Papp, mean ([3]; osmolality 300) | also measured |
| --- | --- | --- | --- | --- | --- | --- | --- | --- | --- | --- | --- | --- | --- | --- | --- | --- | --- | --- |
| Nc1nc2c(ncn2COCCO)c(=O)[nH]1 [Acyclovir, acyclovir] | ~1.7 fold | 4.07 ± 0.6 | 2.52 ± 0.33 | 1.5–2 fold | increased significantly | 4.068 10-6 | 3.864 10-6 | 2.527 10-6 | 3.76 10-6 | 4.675 10-6 | 1.7 | 4.71 ± 0.78 | 2.74 ± 0.38 | 32.7 ± 1.87 | 33.2 ± 1.79 | 32.67 10-6 | 33.19 10-6 | – |
| O=C(O)CN(CC(=O)O)Cc1cc2c(cc1O)Oc1cc(O)c(CN(CC(=O)O)CC(=O)O)cc1C21OC(=O)c2ccccc21 [Calcein, calcein] | approximately 2.0 fold | 0.61 ± 0.04 | 0.35 ± 0.01 | 1.5–2 fold | increased significantly | 0.6055 10-6 | 0.6047 10-6 | 0.3505 10-6 | 0.3884 10-6 | 0.5604 10-6 | 2.0 | 0.8 ± 0.07 | 0.4 ± 0.02 | 2.51 ± 0.3 | 2.84 ± 0.54 | 2.509 10-6 | 2.835 10-6 | Difference in permeation across PermeaPad® between 2 and 30 min pretreatment ([1]; 50 and 300 mOsm/kg NaCl solutions, p > 0.05): no significant differences; Papp, mean ([1]; PermeaPad (2 min pretreatment), osmolality 50): 0.5524 10-6; Papp, mean ([1]; PermeaPad (2 min pretreatment), osmolality 300): 0.3418 10-6; Papp, mean ([1]; PermeaPad, osmolality 250, 30 min pretreatment): 0.3074 10-6; Papp, mean ([1]; PermeaPad, osmolality 350, 30 min pretreatment): 0.3633 10-6 |
| Cc1ccc(-c2cc(C(F)(F)F)nn2-c2ccc(S(N)(=O)=O)cc2)cc1 [Celecoxib, celecoxib] | – | 17.9 ± 7.48 | 15.9 ± 4.99 | – | – | 17.95 10-6 | 12.5 10-6 | 15.92 10-6 | 16.62 10-6 | 17.85 10-6 | – | 34.2 ± 18.1 | 26.2 ± 11.2 | 46.3 ± 2.23 | 46.2 ± 2.74 | 46.3348 10-6 | 46.16 10-6 | Change of permeability across PermeaPad® with different pretreatments (in words) ([1]; NaCl pretreatment solutions from 50 to 900 mOsm/kg compared to 300 mOsm/kg): no significant changes; Change of permeation across PermeaPad® upon hypo-osmotic pretreatment (in words) ([1]; hypo-osmotic pretreatment): remained unchanged |
